Measured values from the METLIN SMRT retention time set (Domingo-Almenara et al. 2019).

Assay: gradient 5% acetonitrile 3 min, to 50% in 2 min, to 85% in 15 min, held 3 min, 100 µL/min
Conditions: column: Zorbax Extend-C18 2.1 x 50 mm; eluents: water / acetonitrile, 0.1% formic acid
In short: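 Values are retention times taken from adduct peaks that software picked and an analyst inspected. The pure standards were run as mixtures of ~100 molecules on HPLC linked to a quadrupole time-of-flight mass spectrometer, in positive and negative ionization mode. A Zorbax Extend-C18 column (2.1 × 50 mm, 1.8 μm) was used at 100 μL/min with water and acetonitrile, each including 0.1% formic acid.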

Row | SMILES | RP-LC retention time
1 | O=C(O)c1cnc(N2CCSCC2)nc1-c1cccc(Cl)c1 | 964 s
2 | COc1ccc(CC(=O)Nc2ccc(-c3nc(Cn4cccn4)c(C)o3)cc2)cc1 | 838 s
3 | COCCNS(=O)(=O)c1cccc(-c2nc(-c3ccc(C)cc3)no2)c1 | 1060 s
4 | CN1C(=O)c2cc(C(=O)NCCC3=CCCCC3)nn2CC1(C)C(=O)NCc1ccc(F)cc1 (stereo not drawn) | 811 s
5 | CCOc1ccccc1NC(=O)CNC(=O)c1c[nH]c2ccccc12 | 729 s
6 | COC[C@@H]1CN(S(=O)(=O)Cc2ccccc2)C[C@H]1c1ccccn1 | 693 s
7 | C[C@H]1CN(C(=O)Nc2ccc(F)cc2)C[C@@H]1c1nc(-c2cccnc2)no1 | 760 s
8 | O=C(Nc1ccc2c(c1)OCCO2)c1cn(-c2cc(N3CCCC3)ncn2)cn1 | 795 s
9 | CCc1ccc(NC(=O)N2CCc3nc(-c4ccc(F)cc4)ncc3C2)cc1 | 1040 s
10 | O=C(Nc1cnn(-c2ncncc2N2CCOCC2)c1)c1cc2c(s1)CCCC2 | 789 s
11 | Cc1cccc(NC(=O)N(C)CCc2noc(COc3cccc(C)c3)n2)c1 | 970 s
12 | COC(=O)c1cnc2nc(C)ccc2c1Nc1ccc(S(N)(=O)=O)cc1 | 586 s
13 | CCNCc1cc(C(C)(C)C)c(O)c(C(C)(C)C)c1 | 753 s
14 | COc1ccc(C)cc1N(C)C(=O)C1CCCN(c2ncnc3c2nc2n3CCCCC2)C1 (stereo not drawn) | 869 s
15 | Nc1ccc(Br)cc1Br | 1000 s
16 | O=C(c1ccsc1)N1CCC(N(C(=O)Cc2ccccc2)C2CCOCC2)CC1 | 774 s
17 | CC(C)NC(=O)CN1c2ccc(F)cc2-c2ccccc2S1(=O)=O | 831 s
18 | Cn1c(C(=O)NCc2cccc(F)c2)cc2ccncc21 | 609 s
19 | O=c1c(NCCc2ccc(Cl)cc2)nccn1-c1ccc2c(c1)OCO2 | 870 s
20 | CCOc1cccc(CN2C[C@@H]3C(=O)N(Cc4ccc5c(c4)OCO5)C(=O)[C@@H]3C2)c1 | 770 s

Row | SMILES | RP-LC retention time
21 | COc1cccc(-c2ccc(=O)n(Cc3nc(-c4ccccc4Cl)no3)n2)c1 | 931 s
22 | Cc1noc(CNC(=O)Cn2cnc3ccccc3c2=O)n1 | 576 s
23 | COc1ccccc1COC(=O)C1=CN(Cc2ccccc2)S(=O)(=O)N=C1C | 1130 s
24 | O=C(Nc1cccc(Cl)c1)N1CCN(CCn2c(-c3ccncc3)nc3cccnc32)CC1 | 623 s
25 | CCOc1ccccc1-c1nc(CN(c2ccccc2)S(=O)(=O)c2cccs2)c(C)o1 | 1160 s
26 | CCOC(=O)c1c(C)[nH]c(CCC(=O)NCc2ccc(SC)cc2)c1C | 714 s
27 | O=C(NCCCN1CCCC1=O)c1nc2ccccn2c1-c1ccc(F)cc1 | 656 s
28 | COc1ccc(NC(=O)C2CCN(C(=O)c3ncn4c3COC(c3ccc(OC)cc3)C4)CC2)cc1 (stereo not drawn) | 760 s
29 | COC(=O)c1cc2c(=O)n(-c3nc(-c4ccccc4)cs3)ccc2nc1C | 1250 s
30 | COc1ccc(C(=O)NC2(c3nc(-c4ccncc4)no3)CCCCC2)cc1OC | 827 s
31 | CCOc1cccc(-c2noc(Cn3ccn(-c4c(C)cccc4C)c(=O)c3=O)n2)c1 | 951 s
32 | CCCOC(=O)C1=C(C)NC2=C(C(=O)C(C(=O)OC)C(C)C2)C1c1ccc(F)cc1 (stereo not drawn) | 958 s
33 | Cc1cc(NCCCCCCCNc2cc(C)nc3cc(N)ccc23)c2ccc(N)cc2n1 | 612 s
34 | Cc1ccc(-n2ccc(=O)c(-c3nc(-c4ccc5c(c4)OCO5)no3)n2)cc1 | 893 s
35 | CCOC(=O)C1=C(C)NC(C)=C(C(=O)OCC)C1c1c(F)c(F)c(F)c(F)c1F | 1240 s
36 | COCCOC1CN(C2CCN(Cc3cccc(C#N)c3)CC2)C12CCCCC2 (stereo not drawn) | 557 s
37 | O=C(Cn1c(=O)cc(-c2nc(C3CC3)no2)c2ccccc21)NCc1cccs1 | 882 s
38 | Cc1cccc(OCCCC(=O)Nc2nc(-c3ccc(Br)cc3)cs2)c1 | 1260 s
39 | COc1ccc2[nH]cc(CCNC(=O)CCc3nnc(C(=O)Nc4ccccc4)s3)c2c1 | 803 s
40 | Cc1ccc(N2CC(c3noc(-c4ccncc4)n3)CC2=O)cc1 (stereo not drawn) | 798 s

Other lines, results leading:

Row | RP-LC retention time | SMILES
41 | 813 s | Cn1ncc(Cl)c1C(=O)N1CCCC1c1cccc(F)c1 (stereo not drawn)
42 | 738 s | CCOC(=O)c1c(C)oc2nc(C)nc(NCCCN3CCN(c4ccc(F)cc4)CC3)c12
43 | 779 s | COc1ccc(NC(=O)C2CCc3sc(C(=O)N4CCCC4)cc3C2)cc1F (stereo not drawn)
44 | 942 s | Cc1cc(NC(=O)c2cc(C)n3nccc3n2)ccc1F
45 | 771 s | CN(C(=O)CC(=O)Nc1ccc2nc3n(c(=O)c2c1)CCCCC3)c1cccc(C(F)(F)F)c1
46 | 566 s | O=C1CCN(C(=O)c2ccco2)CCCC(CO)CCN1 (stereo not drawn)
47 | 696 s | CCOc1ccc(NC(=O)N2CCC(c3nc(C(=O)N(C)C)c(C)o3)CC2)cc1
48 | 1190 s | O=C(C1CCN(S(=O)(=O)c2ccc(-c3noc(CCC4CCCC4)n3)cc2)CC1)N1CCCC1
49 | 847 s | Cc1ccc(C(=O)N2CC=C(C(=O)NC3CC3)CC2)cc1
50 | 847 s | Cc1ccc(N2CCC(NC(=O)c3cccc(C#N)c3)C2=O)cc1C (stereo not drawn)
51 | 1150 s | Cc1cccc(N2CCN(c3ccc4cc(S(=O)(=O)N5CCCC5)ccc4n3)CC2)c1C
52 | 852 s | CN(Cc1ccccc1)C(=O)C1CCN(S(=O)(=O)c2ccc3c(c2)sc(=O)n3C)CC1
53 | 854 s | Cc1cccc(CNC2=NCCNC23CCN(S(=O)(=O)c2ccc4c(c2)CCCC4)CC3)c1
54 | 1080 s | COC(=O)C1=C(C)N(C2CCCC2)C(=O)C1(NC(=O)CCc1ccccc1)C(F)(F)F (stereo not drawn)
55 | 737 s | CCC1CCCCN1C(=O)c1cnc2nc(C)ccc2c1Nc1cc(C)ccc1C (stereo not drawn)
56 | 746 s | Cc1cc(NC(=O)C2CCN(C(=O)c3nc4ccccc4s3)CC2)no1
57 | 831 s | O=C(C1CC1)N1CCC(COCc2ccccc2)CC1
58 | 787 s | O=C(NC1CCCCC1)c1ccc(CN2CCN(Cc3ccccc3)C(=O)C2=O)cc1
59 | 571 s | COc1cccc(CCC(=O)N(C)C[C@@]23CCC[C@H]2N(C)C(=O)CC3)c1
60 | 535 s | O=C(NCCCN1CCCC1=O)C1CCN(c2cncnc2N2CCOCC2)CC1
61 | 942 s | Cc1ccc(NC(=O)C2CCN(S(=O)(=O)c3ccc4c(c3)sc(=O)n4C(C)C)CC2)cc1
62 | 669 s | Cc1ccc(NC(=O)Cn2c(N3CCCC3)nc(C)cc2=O)c(C)c1
63 | 616 s | Cc1ccccc1CN1CCC(CNS(=O)(=O)c2ccc3c(c2)CCCC(=O)N3)CC1
64 | 663 s | CCS(=O)(=O)N1CCCN(C(=O)NC(C)(C)C)CC1

Row | RP-LC retention time | SMILES
65 | 858 s | Cc1ccc(Cl)cc1NC(=O)N1CCC(c2nc(C(=O)N3CCCC3)c(C)o2)CC1
66 | 751 s | Cc1oc(C2CCN(S(=O)(=O)c3cccc(C#N)c3)CC2)nc1C(=O)N(C)C
67 | 1020 s | Cc1c(C(=O)NCC2CC2)cnn1-c1ccc(-c2nc(C(C)(C)C)no2)cn1
68 | 767 s | CCC(=O)N1CCc2cc(C)c(S(=O)(=O)NC3CC3)cc21
69 | 984 s | O=C(NCCC1=CCCCC1)c1nnc(-c2ccc(S(=O)(=O)N3CCOCC3)cc2)o1
70 | 711 s | CCNC(=O)C1CCCN(c2nc3ncn(CC(=O)Nc4ccc(C)c(C)c4)c(=O)c3s2)C1 (stereo not drawn)
71 | 818 s | Cc1ccc(C)c(Sc2ccc(N3CCC(C(=O)NCc4ccco4)CC3)nn2)c1
72 | 1220 s | Cc1nn(-c2nc(-c3ccc(F)cc3)cs2)c(C)c1CC(=O)N1CCc2ccccc2C1
73 | 798 s | CCN1C(=O)c2cccnc2Sc2cc(C(=O)N3CCC(C)CC3)ccc21
74 | 638 s | Cc1noc(-c2ccnc(-n3cnc(C(=O)N4CCOCC4)c3)c2)n1
75 | 647 s | CC(C)(C)C(=O)N1CCCC1COc1ccc(C(=O)N2CCCC2)cc1 (stereo not drawn)
76 | 777 s | O=C(NCC(=O)N1CCCc2ccccc21)c1ccccc1
77 | 908 s | CCN1C(=O)C2CCCCN2c2ccc(C(=O)NCc3ccccc3)cc21 (stereo not drawn)
78 | 622 s | CCc1nnc2nc(N3CCN(C(=O)C(C)Oc4ccccc4)CC3)cc(C)n12 (stereo not drawn)
79 | 650 s | CCc1nc(N2CCC(C(=O)NCc3ccc(OC)c(OC)c3)CC2)c2c(C)scc2n1
80 | 707 s | COc1cc(OC)cc(C(=O)N2CCC3(C2)C(=O)Nc2ccccc23)c1 (stereo not drawn)
81 | 651 s | O=C(C1CC1)N1CCCC(OCc2nc(-c3cnccn3)no2)C1 (stereo not drawn)
82 | 858 s | CN(C)S(=O)(=O)c1ccc(C(=O)Nc2cccc([N+](=O)[O-])c2)cc1
83 | 1020 s | Cc1ccc2c(c1)N(S(C)(=O)=O)CCC(C(=O)Nc1ccc(Cl)cc1)O2 (stereo not drawn)
84 | 647 s | COc1ccc(CC(=O)N2C[C@@H]3C[C@H]2C[C@@H]3NS(C)(=O)=O)cc1
85 | 641 s | CCc1ccc(NC(=O)N(CC)c2nc(-c3ccc(C4CCCCC4)cc3)cs2)cc1
86 | 627 s | CCc1nnc(C2CN(C)CC23CCN(S(=O)(=O)c2ccccc2C)CC3)o1 (stereo not drawn)
87 | 678 s | O=C(Cn1nc2n(c1=O)CCCC2)NCCc1ccc(Cl)cc1
88 | 934 s | Cc1cc(C)cc(OCCNS(=O)(=O)c2ccc3c(c2)OCCO3)c1
